Results reported in patent US10881698B2, “Diagnosis and treatment for respiratory tract diseases” (THE TRUSTEES OF THE UNIVERSITY OF PENNSYLVANIA, priority 2012, dated 2021).
Where a chain is given by its changes, count along the chain named.

How the values were obtained:
[1] = biological target: T1, T2R38 (Homo sapiens, UniProt P59533, A262V); assay: Fluo-4 Ca2+ imaging in primary human sinonasal ALI cultures; type: cell-based; conditions: 1 mM PTC; AVI/AVI cultures
T1 construct: T2R38 is expressed in human upper airway epithelium; endogenous in cells; host or cells: primary human sinonasal epithelial cells, air-liquid interface cultures from surgical patients
T1 sequence (P59533 1-333 A262V): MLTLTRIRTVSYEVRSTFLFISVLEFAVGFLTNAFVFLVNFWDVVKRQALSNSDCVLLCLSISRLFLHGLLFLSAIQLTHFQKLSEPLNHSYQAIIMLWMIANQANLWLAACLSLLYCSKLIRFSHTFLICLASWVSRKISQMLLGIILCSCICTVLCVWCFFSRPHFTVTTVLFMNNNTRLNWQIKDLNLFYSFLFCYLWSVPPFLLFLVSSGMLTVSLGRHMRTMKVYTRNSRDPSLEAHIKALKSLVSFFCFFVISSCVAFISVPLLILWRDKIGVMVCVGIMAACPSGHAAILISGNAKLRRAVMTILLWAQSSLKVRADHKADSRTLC

[2] = biological target: T2, T2R38 (Homo sapiens, UniProt P59533, A49P/I296V); assay: as above; type: cell-based; conditions: 1 mM PTC; PAV/PAV cultures
T2 construct: T2R38 is expressed in human upper airway epithelium; endogenous in cells; host or cells: primary human sinonasal epithelial cells, air-liquid interface cultures from surgical patients
T2 sequence (P59533 1-333 A49P/I296V): T1 sequence (P59533 1-333 A262V) with A49P, V262A, I296V

[3] = test system: T2R38; assay: as above; type: cell-based; conditions: 1 mM PTC; PAV/AVI cultures
[4] = biological target: T3, PAV-TAS2R38 (Homo sapiens, UniProt P59533, A49P/I296V); assay: Fluo-4 calcium mobilization in HEK293 cells expressing hTAS2R38 (PAV) and Gα16gustducin44; type: cell-based; conditions: 1 mM agonist; PAV variant
T3 construct: first 45 amino acids of rat SSTR-3 (N); host or cells: HEK293 (peakRapid), transient transfection, pcDNA3.1(+)
T3 sequence (P59533 1-333 A49P/I296V): T1 sequence (P59533 1-333 A262V) with A49P, V262A, I296V

[5] = biological target: T4, AVI-TAS2R38 (Homo sapiens, UniProt P59533, A262V); assay: Fluo-4 calcium mobilization in HEK293 cells expressing hTAS2R38 (AVI) and Gα16gustducin44; type: cell-based; conditions: 1 mM agonist; AVI variant
T4 construct: first 45 amino acids of rat SSTR-3 (N); host or cells: HEK293 (peakRapid), transient transfection, pcDNA3.1(+)
T4 sequence (P59533 1-333 A262V): T1 sequence (P59533 1-333 A262V)

[6] = biological target: T1, T2R38; assay: NO metabolites in airway surface liquid by chemiluminescence; type: cell-based; conditions: 1 mM PTC; AVI/AVI
Description: (§1) ASL from stimulated and unstimulated cultures (20 μL total volume for each) was collected after 20 min at 37° C. and frozen at −20° C. and protected from light until analysis. NO-metabolites were evaluated by reduction of metabolites with acidified-heated vanadium to nitric oxide and detection of nitric oxide by chemiluminescence on the Sievers 280 nitric oxide analyzer. Samples were injected into a custom made purge container containing 0.05 M Vanadium chloride in 1 N HCl heated to 95° C. The reading in millivolts was compared to a standard curve generated by injecting standard solutions of nitrate. This reductive method reports on the total levels of nitrate, nitrite, N-nitroso and iron-nitrosyl adducts as well as low molecular weight and protein S-nitrosothiol adducts.
(§2) The antibacterial properties of NO help maintain the sterility of the sinonasal airways. […] NO diffusion into the ASL was quantified by measuring NO-derived byproducts in 20 μL of airway surface liquid from cultures stimulated with 1 mM PTC (or PBS alone) for 20 min using reductive chemistries coupled with chemiluminescence detection of nitric oxide (FIG. 20A). ASL levels of NO metabolites (nitrate, nitrite, N-nitroso and iron-nitrosyl adducts as well as low molecular weight and protein S-nitrosothiol adducts) were not different in unstimulated PAV/PAV and AVI/AVI cultures (0.41±0.13 pmol/μL for PAV/PAV and 0.66±0.33 for AVI/AVI; n.s. vs PAV/PAV). However, the increase observed in PTC-stimulated PAV/PAV cultures was >2-fold larger than that observed in AVI/AVI cultures (FIG. 20A). In PTC stimulated cultures, NO metabolites in the ASL over 20 minutes were 4.37 pmol/μL (PAV/PAV; P<0.001 vs unstimulated PAV/PAV) and 1.72 pmol/μL (AVI/AVI; P<0.01 vs stimulated PAV/PAV; n.s. vs unstimulated AVI/AVI).

[7] = biological target: T2, T2R38; assay: as above; type: cell-based; conditions: 1 mM PTC; PAV/PAV
Description: as §1, §2

[8] = test system: T2R38; assay: as above; type: cell-based, human; conditions: 1 mM PTC; 20 min
Description: as §1, §2

[9] = biological target: T1, T2R38; assay: DAF-2/Texas Red dextran ratio assay of NO secretion into ASL; type: cell-based; conditions: 1 mM PTC, AVI/AVI
Description: (§3) For measurement of NO secretion, a protocol was developed in which a solution of Texas Red Dextran (an NO-insensitive cell-impermeant dye) and DAF-2 (an NO-sensitive cell-impermeant dye) were added in a small volume (10 μl) to the apical surface of the cultures. The ratio of DAF-2/Texas Red fluorescence was recorded using wide-field epifluorescence microscopy at baseline and after incubation at 37° C. for the indicated times. This experiment was validated by addition of DETA-NONOate, an NO donor that releases 2 moles of NO per mole of parent molecule. DETA-NONOate was added on top of ALI cultures in pH 5 buffer to stimulate rapid decomposition. Imaging was performed using a Nikon 20×0.5 NA PlanFluor objective and 100 W mercury arc lamp with filters from Chroma Technologies (Rockingham, Vt.). Green filter contained a 480/40 nm band-pass [bp] excitation filter (reported as max transmission wavelength/filter width at half maximal transmission), a 505 nm dichroic mirror, and a 535/40 nm by emission filter. Red filter set contained a 560/40 nm by excitation filter, 595 dichroic mirror, and 630/60 nm by emission filter.
(§4) We also utilized a fluorescence-based assay to measure NO diffusion into the ASL. The apical surface of cultures was overlaid with a small volume (10 μl) of phosphate-buffered saline with or without 1 mM PTC containing 2 spectrally distinct cell-impermeant dyes, the NO-sensitive 4,5-diaminofluorescence diacetate (DAF-2) and the NO-insensitive Texas Red dextran ([…] MW); a ratiometric measurement was used to eliminate any artifacts due to expansion or contraction of ASL volume. The ratio of DAF-2/Texas Red fluorescence was recorded by fluorescence microscopy after 5, 30 and 60 min incubations at 37° C. […] We utilized this assay to determine if exposure to Pseudomonas and their secretions was sufficient to cause epithelial cells to produce NO with subsequent diffusion into the ASL. Log-phase cultures of PAO1 and PAO-JP2 were resuspended in PBS and placed on the ALI surface in the presence of DAF-2 and Texas Red.

[10] = biological target: T2, T2R38; assay: as above; type: cell-based; conditions: 1 mM PTC, PAV/PAV
Description: as §3, §4

[11] = test system: acutely dissociated sinonasal ciliated epithelial cells; assay: Ca2+ and DAF-FM responses in acutely dissociated sinonasal ciliated cells; type: cell-based, human
[12] = test system: Pseudomonas aeruginosa; assay: Kill assay with ASL from stimulated sinonasal ALI cultures (CFU plating); type: cell-based; conditions: for Growth of bacteria mixed with ASL from stimulated cultures: 10 mM denatonium, 300 μM absinthin, Pseudomonas aeruginosa; for Effect of solutions alone on growth: no ASL, Pseudomonas
[13] = test system: Methicillin-resistant Staphylococcus aureus (MRSA); assay: as above; type: cell-based; conditions: for Growth of bacteria mixed with ASL from stimulated cultures: 10 mM denatonium, 300 μM absinthin; for Effect of solutions alone on growth: no ASL
[14] = test system: Kleibsiella pneumoniae; assay: Bactericidal effect of ASL from treated nasal cultures; type: cell-based; conditions: 10 mM denatonium or 300 μM absinthin
[15] = test system: beta-defensin 2; assay: Beta-defensin 2 secretion by sinonasal cultures; type: cell-based, human
[16] = biological target: T2, T2R38; assay: DAF-FM imaging of NO production in human sinonasal ALI cultures; type: cell-based; conditions: thujone 5 mM, denatonium 10 mM; PAV/PAV cultures
[17] = test system: nasal epithelial cells; assay: Fluo-4 calcium signaling with denatonium in nasal epithelial cells (sinonasal ALI cultures); type: cell-based, human; conditions: 0.1-20 mM denatonium

Compound	Peak Fluo-4 fluorescence (ΔF/F) [4] [%]	Peak Fluo-4 fluorescence (ΔF/F) [5] [%]	Growth of bacteria mixed with ASL from stimulated cultures [12] [CFUs]	Effect of solutions alone on growth [12]	Growth of bacteria mixed with ASL from stimulated cultures [13] [CFUs]	Effect of solutions alone on growth [13]	Bactericidal effect of ASL from treated nasal cultures [14]	Beta-defensin 2 secretion [15]	also measured
NC(=S)Nc1ccccc1 [PTC, phenylthiocarbamide]	114±4	−4±1							Fluo-4 fluorescence after 5 min PTC [1]: 1.06±0.02; Fluo-4 fluorescence after 5 min PTC [2]: 1.30±0.027; Fluo-4 fluorescence after 5 min PTC [3]: 1.14±0.035; NO metabolites in the ASL over 20 minutes [6]: 1.72 pmol/µL; NO metabolites in the ASL over 20 minutes [7]: 4.37 pmol/µL; Increase in NO metabolites, PTC-stimulated PAV/PAV relative to AVI/AVI cultures [8]: > 2 fold; DAF-2/Texas Red Dextran fluorescence ratio after PTC stimulation ([9]; 5 min): 0.54±0.1; DAF-2/Texas Red Dextran fluorescence ratio after PTC stimulation ([9]; 30 min): 0.71±0.1; DAF-2/Texas Red Dextran fluorescence ratio after PTC stimulation ([9]; 60 min): 0.90±0.3; DAF-2/Texas Red Dextran fluorescence ratio after PTC stimulation ([10]; 5 min): 0.46±0.10; DAF-2/Texas Red Dextran fluorescence ratio after PTC stimulation ([10]; 30 min): 1.55±0.17; DAF-2/Texas Red Dextran fluorescence ratio after PTC stimulation ([10]; 60 min): 2.52±0.76; Ca2+ responses in acutely dissociated sinonasal ciliated cells [11]: occurred
CC1=C[C@H]2[C@H]3[C@H](C(C)=C4[C@H]5OC(=O)[C@@H](C)[C@@H]5CC[C@](C)(O)[C@@H]43)[C@@]13[C@@H]2[C@@](C)(O)CC[C@H]1[C@H](C)C(=O)O[C@@H]13 [absinthin]			0	had no effect	0	had no effect	significant bactericidal effects	induced	
CC[N+](CC)(CC(=O)Nc1c(C)cccc1C)Cc1ccccc1 [denatonium, denatonium benzoate]	1±2	3±1	0	had no effect	0	had no effect	significant bactericidal effects	induced	NO production with non-T2R38 bitter ligands [16]: did not stimulate NO production; Fluo-4 fluorescence on stimulation with denatonium [17]: increases fluo-4 fluorescence
